Several values for one entry are separate records, joined by “and”; a condition that tells them apart may be missing. Equal values may be shown once.
Key:
[1] = system: Human diploid fibroblasts HCA; experiment: Anti-aging activity: senescence-associated beta-galactosidase in human fibroblasts; assay type: cell-based; details: for Senescent Cells (%) HCA passage 25: passage 25, cells expressing senescence-associated beta-galactosidase; for Senescent Cells (%) HCA passage 50: passage 50, cells expressing senescence-associated beta-galactosidase; for Senescent Cells (%) HCA passage 80: passage 80, cells expressing senescence-associated beta-galactosidase
Procedure: In this example, effects of the compounds of this invention on the activity of a senescence biomarker senescence-associated β-galactosidase was studied. Human diploid fibroblasts HCA of various passage levels were used for this purpose. The tested compounds were added to the medium at each passage. After the incubation period, cells were washed with PBS and fixed with 2% formaldehyde and 0.2% glutaraldehyde in PBS. After another wash with PBS, they were incubated with the staining solution comprising potassium ferricyanide (5 mM), potassium ferrocyanide (5 mM), MgCl2 (2 mM), X-gal (5-bromo-4-chloro-3-indolyl-β-D-galactopyranoside) (1 mg/ml), in citric/phosphate buffer (pH 6.0) at 37° C. (without CO2) for at least 1 hour. Following the incubation period, the numbers of cells expressing senescence-associated β-galactosidase (blue cells) were counted using light microscope.

[2] = system: Amaranthus caudatus cotyledon/hypocotyl explants; experiment: Amaranthus bioassay (betacyanin content); assay type: cell-based, Amaranthus caudatus var. atropurpurea; details: for Activity (%) [10^−5 mol · l^−1 K = 100%]: at the concentration with highest activity, relative to 10^−5 M kinetin
Procedure: The standard Amaranthus bioassay was performed with the following modifications. The seeds of Amaranthus caudatus var. atropurpurea were surface-sterilised in 10% (w/v) N-chlorobenzenesulfonamide for 10 min and washed 5 times with deionized water. They were placed in 15 cm Petri dishes containing paper tissues saturated with deionized water. After 72 h of cultivation at 25° C. in darkness, the roots of the seedlings were cut off. The explants, consisting of two cotyledons and hypocotyls, were placed in 5 cm Petri dishes onto two layers of filtration paper soaked with 1 ml of the incubation medium containing 10 μmol of Na2HPO4—KH2PO4, pH 6.8, 5 μmol of tyrosine and the compound to be tested. There were 20 explants per dish. The procedure was carried out under green safe light in a darkroom. After 48 h of incubation at 25° C. in darkness, betacyanin was extracted by freezing the explants in 4 ml 3.33 μM acetic acid. The concentration of betacyanin was determined from the absorbances at 537 nm and 620 nm as follows: ΔA=A537nm−A620nm. The values ΔA were plotted against the concentration tested, are means of five replicates and the entire test was repeated at least twice. […] The compounds to be tested were dissolved in dimethylsulfoxide (DMSO) and the solution brought up to 10^−3M with distilled water.
From the obtained data, the concentration with the highest activity was selected for each compound tested. Relative activity of the compound at this concentration was calculated (Tab. 12). The activity obtained for 10^−5 M kinetin (K) was postulated as 100%.

[3] = system: cytokinin-dependent tobacco callus Nicotiana tabacum L. cv. Wisconsin 38; experiment: Tobacco callus biotest (plant cell division); assay type: cell-based; details: for Activity (%) [10^−5 mol · l^−1 K = 100%]: at the concentration with highest activity, relative to 10^−5 M kinetin
Procedure: The stimulatory effect of the newly prepared derivatives was tested in the calus biotest using cytokinin-dependent tobacco callus. Cytokinin-dependent tobacco callus Nicotiana tabacum L. cv. Wisconsin 38 was maintained at 25° C. in darkness on modified Murashige-Skoog medium, containing per 1 liter: 4 μmol of nicotinic acid, 2.4 μmol of pyridoxine hydrochloride, 1.2 μmol of thiamine, 26.6 μmol of glycine, 1.37 μmol of glutamine, 1.8 μmol of myo-inositol, 30 g of sucrose, 8 g of agar, 5.37 μmol of NAA and 0.5 μmol of 6-benzylaminopurine. Subcultivation was carried out every three weeks. Fourteen days before the bioassay, the callus tissue was transferred to the media without 6-benzylaminopurine. The biological activity was determined from the increase of the fresh callus weight after four weeks of cultivation. Five replicates were prepared for each concentration of the compound tested and the entire test was repeated twice. […] The compounds to be tested were dissolved in dimethylsulfoxide (DMSO) and the solution brought up to 10^−3 M with distilled water.
From the obtained data, the concentration with the highest activity was selected for each compound tested. Relative activity of the compound at this concentration was calculated (Table 11). The activity obtained for 10^−5 M of the control substance kinetin (K) was postulated as 100%.

AHK3 = biological target: T1, AHK3 (Arabidopsis thaliana, UniProt Q9C5U1); experiment: Activation of cytokinin receptors (E. coli KMI001 beta-galactosidase reporter); assay type: cell-based; details: 28 h incubation; n.a. means no activation
T1 sequence (Q9C5U1 1-1036): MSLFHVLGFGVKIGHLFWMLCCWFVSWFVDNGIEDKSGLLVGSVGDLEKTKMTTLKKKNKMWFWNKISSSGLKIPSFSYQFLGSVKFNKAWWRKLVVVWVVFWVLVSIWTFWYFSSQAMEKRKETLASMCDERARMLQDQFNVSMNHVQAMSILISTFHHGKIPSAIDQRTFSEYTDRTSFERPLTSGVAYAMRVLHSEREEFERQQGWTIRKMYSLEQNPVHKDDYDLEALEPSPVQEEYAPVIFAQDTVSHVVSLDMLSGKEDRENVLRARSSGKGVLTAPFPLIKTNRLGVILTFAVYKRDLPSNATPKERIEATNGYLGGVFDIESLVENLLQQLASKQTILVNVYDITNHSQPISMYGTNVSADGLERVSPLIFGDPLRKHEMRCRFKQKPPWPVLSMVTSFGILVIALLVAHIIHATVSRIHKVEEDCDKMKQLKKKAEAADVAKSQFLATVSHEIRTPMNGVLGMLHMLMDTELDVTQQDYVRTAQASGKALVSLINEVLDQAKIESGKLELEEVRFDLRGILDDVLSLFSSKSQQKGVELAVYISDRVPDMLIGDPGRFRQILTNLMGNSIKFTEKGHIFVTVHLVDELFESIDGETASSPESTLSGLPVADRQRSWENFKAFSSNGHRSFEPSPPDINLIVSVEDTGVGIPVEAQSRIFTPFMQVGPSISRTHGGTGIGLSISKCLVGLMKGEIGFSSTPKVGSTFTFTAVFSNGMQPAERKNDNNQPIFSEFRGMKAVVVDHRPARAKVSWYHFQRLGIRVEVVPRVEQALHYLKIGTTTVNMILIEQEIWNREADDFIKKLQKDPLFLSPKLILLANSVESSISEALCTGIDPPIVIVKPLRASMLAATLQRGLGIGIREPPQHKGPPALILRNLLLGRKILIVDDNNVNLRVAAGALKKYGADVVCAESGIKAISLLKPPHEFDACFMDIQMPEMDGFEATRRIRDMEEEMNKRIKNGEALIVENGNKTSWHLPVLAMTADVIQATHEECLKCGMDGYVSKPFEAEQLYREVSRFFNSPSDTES
Procedure: Escherichia coli strains KMI001 harbouring the plasmid […]4 or […]3 were grown overnight at 25° C. in M9 media enriched with 0.1% casamino acids to OD600 1. The preculture was diluted 1:600 in 1 ml M9 medium containing 0.1% casamino acids and 1 μl stock solution of either the tested compound (10^-7 M-5×10^-5 M) or solvent control (DMSO, ethanol, methanol) were added. The cultures were further grown at 25° C. in microtiter plate, 200 μl per well. […] The cultures were centrifuged and 50 μl aliquots of the supernatant were transferred to microtiter plate containing 2 μl 150 mM 4-methyl umbelliferyl galactoside which was subsequently incubated for 1 h at 37° C. The reaction was stopped by adding 100 μl 0.2 M Na2CO3. […] The EC50 value, the compound concentration activating the receptor to 50%, was calculated from the obtained dose response curves. The values shown in Table 10 are means of three replicates and the entire test was repeated at least twice.

EC50 (AHK3) [µM] | SMILES | Senescent Cells (%) HCA passage 25 [1] [%] | Senescent Cells (%) HCA passage 50 [1] [%] | Senescent Cells (%) HCA passage 80 [1] [%] | Activity (%) [10^−5 mol · l^−1 K = 100%] [2] | also measured
– | COc1cc(Nc2nc(Cl)nc3nc[nH]c23)ccc1O | 4 | 6 | – | – | –
– | COc1cccc(Nc2nc(N)nc3nc[nH]c23)c1 [2-amino-6-(3-methoxyanilino)purine] | 4 | 4 | 22 | – | –
– | Nc1nc(Nc2ccc(O)cc2)c2nc[nH]c2n1 [2-amino-(4-hydroanilino)purine] | 3 | 4 | 21 | – | –
– | Nc1nc(Nc2ccc(O)cc2)c2[nH]cnc2n1 [2-amino-(4-hydroxyanilino)purine] | 4 | 4 | 18 | – | –
– | COc1cccc(Nc2nc(Cl)nc3nc[nH]c23)c1 [2-chloro-6-(3-methoxyanilino)purine] | 5 | 5 | 24 | – | –
– | COc1ccc(Nc2nc(Cl)nc3nc[nH]c23)cc1 [2-chloro-6-(4-methoxyanilino)purine] | 4 | 3 | 26 | – | –
– | COc1cccc(Nc2nc(F)nc3nc[nH]c23)c1 [2-fluoro-6-(3-methoxyanilino)purine] | 3 | 5 | 29 | – | –
– | Oc1ccc(Nc2nc(F)nc3nc[nH]c23)cc1 [2-fluoro-6-(4-hydroxyanilino)purine] | 3 | 4 | 18 | – | –
– | CSc1nc(Nc2ccc(O)cc2)c2[nH]cnc2n1 [2-methylthio-6-(4-hydroxyanilino)purine] | 4 | 6 | 34 | – | –
– | Fc1ccc(Nc2nc(Cl)nc3[nH]cnc23)cc1 [Compound 7] | – | – | – | 104% | Activity (%) [10^−5 mol · l^−1 K = 100%] [3]: 112%
– | COc1ccccc1Nc1nc(Cl)nc2nc[nH]c12 [Compound 11] | – | – | – | 110.3% and 121.7% | concentration with highest activity ([2]; 48 h): 10^−5 mol · l^−1; Activity (%) [10^−5 mol · l^−1 K = 100%] [3]: 109%; concentration with highest activity ([3]; fresh weight after four weeks): 10^−5 mol · l^−1
33.1 | COc1ccc(Nc2nc(Cl)nc3[nH]cnc23)cc1 [Compound 13] | – | – | – | – | –
22.5 | Fc1ccc(Nc2nc(F)nc3[nH]cnc23)cc1 [Compound 46] | – | – | – | 109% | Activity (%) [10^−5 mol · l^−1 K = 100%] [3]: 110.7%
18.9 | COc1ccc(Nc2nc(F)nc3[nH]cnc23)cc1 [Compound 52] | – | – | – | – | Activity (%) [10^−5 mol · l^−1 K = 100%] [3]: 105%
8.1 | Nc1nc(Nc2ccc(Cl)cc2)c2nc[nH]c2n1 [Compound 67] | – | – | – | 141.7% | –
19.5 | Nc1nc(Nc2ccc(F)cc2)c2nc[nH]c2n1 [Compound 70] | – | – | – | 136% | –
29 | COc1ccccc1Nc1nc(N)nc2[nH]cnc12 [Compound 74] | – | – | – | 108% | –
26.3 | COc1ccc(Nc2nc(N)nc3[nH]cnc23)cc1 [Compound 76] | – | – | – | – | –
10.2 | Sc1nc(Nc2ccc(Cl)cc2)c2nc[nH]c2n1 [Compound 81] | – | – | – | 122.9% | Activity (%) [10^−5 mol · l^−1 K = 100%] [3]: 115.7%
